Laboratory results: paper PMC2156105 (The Journal of biological chemistry, 2007)

How the values were obtained:
[1] = target: AMP-activated protein kinase (AMPK), native rat liver αβγ complex (γ1 subunit) (Rattus norvegicus, UniProt P80385); assay: kinase activity assay of purified rat liver AMPK; type: biochemical
[2] = target: AMPK γ2 subunit (Bateman domains) (Homo sapiens, UniProt Q9UGJ0); assay: scintillation proximity assay, displacement of [3H]AMP by unlabelled AMP; type: binding
AMPK γ2 subunit (Bateman domains), sequence (Q9UGJ0 275-562 limits assumed): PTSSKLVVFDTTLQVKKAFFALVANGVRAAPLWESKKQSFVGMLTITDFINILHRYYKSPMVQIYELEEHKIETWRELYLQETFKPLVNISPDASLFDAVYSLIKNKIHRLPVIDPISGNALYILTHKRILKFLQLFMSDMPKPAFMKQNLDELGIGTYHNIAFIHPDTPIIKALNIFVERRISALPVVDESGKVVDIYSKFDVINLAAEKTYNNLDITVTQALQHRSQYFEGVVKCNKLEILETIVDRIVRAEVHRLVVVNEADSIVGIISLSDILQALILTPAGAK

AMP-activated protein kinase (AMPK), native rat liver αβγ complex (γ1 subunit), sequence (P80385 whole entry, the tested form may be a part): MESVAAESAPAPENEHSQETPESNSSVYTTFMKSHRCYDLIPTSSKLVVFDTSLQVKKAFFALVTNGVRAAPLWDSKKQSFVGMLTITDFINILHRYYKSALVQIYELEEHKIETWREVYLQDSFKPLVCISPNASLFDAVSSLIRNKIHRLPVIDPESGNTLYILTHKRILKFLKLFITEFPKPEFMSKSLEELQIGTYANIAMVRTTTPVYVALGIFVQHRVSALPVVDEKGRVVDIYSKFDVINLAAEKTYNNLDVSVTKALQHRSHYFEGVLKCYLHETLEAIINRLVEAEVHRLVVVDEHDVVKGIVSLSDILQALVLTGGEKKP
AMP-activated protein kinase (AMPK), native rat liver αβγ complex (γ1 subunit), sequence (P54645 whole entry partner, the tested form may be a part): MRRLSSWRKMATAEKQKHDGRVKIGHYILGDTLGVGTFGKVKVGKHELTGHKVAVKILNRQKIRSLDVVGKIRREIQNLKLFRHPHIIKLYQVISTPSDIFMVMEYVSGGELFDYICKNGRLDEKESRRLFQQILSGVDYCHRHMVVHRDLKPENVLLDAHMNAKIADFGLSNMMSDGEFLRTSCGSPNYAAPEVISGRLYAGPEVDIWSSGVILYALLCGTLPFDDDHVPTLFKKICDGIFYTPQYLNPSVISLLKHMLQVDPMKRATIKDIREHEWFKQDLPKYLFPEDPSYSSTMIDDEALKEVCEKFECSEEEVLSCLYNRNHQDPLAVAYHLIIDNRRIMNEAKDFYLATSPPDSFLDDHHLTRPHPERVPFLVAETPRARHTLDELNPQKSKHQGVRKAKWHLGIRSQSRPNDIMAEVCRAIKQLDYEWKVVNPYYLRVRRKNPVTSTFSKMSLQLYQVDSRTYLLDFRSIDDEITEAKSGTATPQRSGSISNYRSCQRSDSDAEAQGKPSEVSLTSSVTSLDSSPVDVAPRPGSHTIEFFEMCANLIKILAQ
AMP-activated protein kinase (AMPK), native rat liver αβγ complex (γ1 subunit), sequence (Q09137 whole entry partner, the tested form may be a part): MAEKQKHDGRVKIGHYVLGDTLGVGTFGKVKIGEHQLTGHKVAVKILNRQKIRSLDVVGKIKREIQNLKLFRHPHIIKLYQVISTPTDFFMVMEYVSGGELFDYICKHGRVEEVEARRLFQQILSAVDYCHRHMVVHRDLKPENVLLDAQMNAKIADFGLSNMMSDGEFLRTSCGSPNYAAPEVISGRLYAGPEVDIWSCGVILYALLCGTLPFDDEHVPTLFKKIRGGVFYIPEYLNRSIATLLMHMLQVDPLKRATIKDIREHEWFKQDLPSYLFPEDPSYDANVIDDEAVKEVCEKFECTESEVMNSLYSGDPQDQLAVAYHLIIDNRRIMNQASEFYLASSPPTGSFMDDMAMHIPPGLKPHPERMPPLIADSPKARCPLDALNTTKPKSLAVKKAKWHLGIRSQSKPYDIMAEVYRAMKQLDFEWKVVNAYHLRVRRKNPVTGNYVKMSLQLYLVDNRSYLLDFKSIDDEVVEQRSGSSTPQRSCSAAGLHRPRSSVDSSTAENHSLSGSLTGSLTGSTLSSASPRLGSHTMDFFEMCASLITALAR
AMP-activated protein kinase (AMPK), native rat liver αβγ complex (γ1 subunit), sequence (P80386 2-270 partner): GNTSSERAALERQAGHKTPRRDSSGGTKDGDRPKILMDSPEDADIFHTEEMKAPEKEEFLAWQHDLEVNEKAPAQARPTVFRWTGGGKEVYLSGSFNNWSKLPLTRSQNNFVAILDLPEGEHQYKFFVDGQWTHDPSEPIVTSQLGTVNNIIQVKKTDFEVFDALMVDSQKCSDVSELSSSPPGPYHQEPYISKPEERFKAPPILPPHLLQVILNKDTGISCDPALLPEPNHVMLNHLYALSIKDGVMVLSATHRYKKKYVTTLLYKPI

- EC50 [1]: 6 ± 3 µM
- Kd [2]: 80 ± 15 µM
SMILES: Nc1ncnc2c1ncn2[C@@H]1O[C@H](COP(=O)(O)O)[C@@H](O)[C@H]1O [AMP]
